Patent publication US20130333715A1, “SHAMPOO COMPOSITIONS AND METHODS OF MAKING SAME” (The Procter & Gamble Company, priority 2012, published 2013)

Experiments:
[1] = Calculated conditional stability constants for chelants with Cu^+2 at specified pH; format: physicochemical
Text: (§1) However, as the pH range of the present compositions are acidic (i.e., less than 7), the log alpha value (αm) is considered to be constant and approximately negligible.

[2] = 1:1 complex, fully deprotonated chelant, 25° C., 0.1M ionic strength; cited from earlier work
[3] = Calculated conditional stability constants for chelants with Fe^+3 at specified pH
Text: The gradual change in ligand species as pH changes can be represented using alpha (α) coefficients, defined as: [formula] […] By combining stability (K) and alpha (α) constants at a given pH, the formula below provides the effective chelating power of a chelant.

[4] = 1:1 complex, fully deprotonated chelant, 25° C., 0.1M ionic strength; cited from earlier work; remark: listed apart in the source
[5] = 1:1 complex, fully deprotonated chelant, 25° C., 0.1M ionic strength; cited from earlier work; remark: listed apart in the source
[6] = Calculated conditional stability constants for chelants with Ca^+2 at specified pH; format: physicochemical
Text: as §1
The calculated stability constants for a range of chelants with Fe^+3, Cu^+2, and Ca^+2 are given below in Table 3: […]

| SMILES | log Conditional Stability Constant (@ pH) Cu^+2 ([1]; pH 2) | log Conditional Stability Constant (@ pH) Cu^+2 ([1]; pH 3) | log Conditional Stability Constant (@ pH) Cu^+2 ([1]; pH 4) | log Conditional Stability Constant (@ pH) Cu^+2 ([1]; pH 5) | log Conditional Stability Constant (@ pH) Cu^+2 ([1]; pH 6) | log Conditional Stability Constant (@ pH) Cu^+2 ([1]; pH 8) | log Conditional Stability Constant (@ pH) Ca^+2 ([6]; pH 2) | log Conditional Stability Constant (@ pH) Ca^+2 ([6]; pH 3) | log Conditional Stability Constant (@ pH) Ca^+2 ([6]; pH 4) | log Conditional Stability Constant (@ pH) Ca^+2 ([6]; pH 5) | log Conditional Stability Constant (@ pH) Ca^+2 ([6]; pH 6) | log Conditional Stability Constant (@ pH) Ca^+2 ([6]; pH 7) | log Conditional Stability Constant (@ pH) Ca^+2 ([6]; pH 8) | log Conditional Stability Constant (@ pH) Cu^+2 ([1]; pH 7) | log K Fe [2] | log K Ca [4] | log K Cu [5] | other results |
| --- | --- | --- | --- | --- | --- | --- | --- | --- | --- | --- | --- | --- | --- | --- | --- | --- | --- | --- |
| O=C(O)CC(NCCNC(CC(=O)O)C(=O)O)C(=O)O (mixture of isomers) [EDDS, ethylene diamine disuccinic acid] | 2.59 | 6.28 | 9.20 | 11.41 | 13.39 | 16.26 | −11.11 | −7.42 | −4.50 | −2.29 | −0.13 | 1.36 | 2.56 | – | 22.0 | 4.58 | 18.35 | log Conditional Stability Constant (@ pH) Fe^+3 ([3]; pH 2): 6.29; log Conditional Stability Constant (@ pH) Fe^+3 ([3]; pH 3): 9.98; log Conditional Stability Constant (@ pH) Fe^+3 ([3]; pH 4): 12.90; log Conditional Stability Constant (@ pH) Fe^+3 ([3]; pH 6): 17.09; log Conditional Stability Constant (@ pH) Fe^+3 ([3]; pH 7): 18.76; log Conditional Stability Constant (@ pH) Fe^+3 ([3]; pH 8): 19.96 |
| O=C(O)CC[C@H](NCCN[C@H](CCC(=O)O)C(=O)O)C(=O)O [EDDG, ethylenediamine-N,N′-diglutaric acid] | – | – | – | – | – | – | – | – | – | – | – | – | – | – | – | 2.70 | 15.15 | – |
| O=C(O)CC[C@@H](C(=O)O)N(CC(=O)O)CC(=O)O [GLD, glutamic acid diacetic acid] | −0.42 | 3.32 | 5.75 | 7.33 | 8.45 | 10.47 | −7.62 | −3.88 | −1.45 | 0.13 | 1.25 | 2.27 | 3.27 | 9.47 | – | – | – | – |
| O=C(O)CN(CCN(CC(=O)O)Cc1ccccc1O)Cc1ccccc1O [HBED] | – | – | – | – | – | – | – | – | – | – | – | – | – | – | 39.7 | 9.3 | 9.29 | log Conditional Stability Constant (@ pH) Fe^+3 ([3]; pH 2): 13.54; log Conditional Stability Constant (@ pH) Fe^+3 ([3]; pH 3): 17.54; log Conditional Stability Constant (@ pH) Fe^+3 ([3]; pH 4): 21.52; log Conditional Stability Constant (@ pH) Fe^+3 ([3]; pH 5): 25.39; log Conditional Stability Constant (@ pH) Fe^+3 ([3]; pH 6): 28.82; log Conditional Stability Constant (@ pH) Fe^+3 ([3]; pH 7): 31.89; log Conditional Stability Constant (@ pH) Fe^+3 ([3]; pH 8): 34.85 |
| CC(O)(P(=O)(O)O)P(=O)(O)O [HEDP] | – | – | – | – | – | – | – | – | – | – | – | – | – | – | 14.1 | 6.0 | 11.84 | – |
| O=C(O)CC(NCC(O)CNC(CC(=O)O)C(=O)O)C(=O)O (centres unmarked) [HPDDS, 2-hydroxypropylendiamin-N—N′-disucinnic acid] | −4.27 | −0.37 | 2.99 | 5.40 | 7.45 | 11.21 | −14.17 | −10.27 | −6.91 | −4.50 | −2.45 | 0.47 | 1.31 | 9.43 | – | 2.94 | 12.84 | – |
| CC(C(=O)O)N(CC(=O)O)CC(=O)O (centres unmarked) [MGDA, methylglycinediacetic acid] | 3.80 | 5.84 | 7.08 | 8.11 | 9.11 | – | −3.10 | −1.06 | 0.18 | 1.21 | 2.21 | 3.21 | 4.21 | 10.11 | – | – | – | – |

Continued, in another order:

| log Conditional Stability Constant (@ pH) Cu^+2 ([1]; pH 2) | log Conditional Stability Constant (@ pH) Cu^+2 ([1]; pH 3) | log Conditional Stability Constant (@ pH) Cu^+2 ([1]; pH 4) | log Conditional Stability Constant (@ pH) Cu^+2 ([1]; pH 5) | log Conditional Stability Constant (@ pH) Cu^+2 ([1]; pH 6) | log Conditional Stability Constant (@ pH) Cu^+2 ([1]; pH 8) | log Conditional Stability Constant (@ pH) Ca^+2 ([6]; pH 2) | log Conditional Stability Constant (@ pH) Ca^+2 ([6]; pH 3) | log Conditional Stability Constant (@ pH) Ca^+2 ([6]; pH 4) | log Conditional Stability Constant (@ pH) Ca^+2 ([6]; pH 5) | log Conditional Stability Constant (@ pH) Ca^+2 ([6]; pH 6) | log Conditional Stability Constant (@ pH) Ca^+2 ([6]; pH 7) | log Conditional Stability Constant (@ pH) Ca^+2 ([6]; pH 8) | log Conditional Stability Constant (@ pH) Cu^+2 ([1]; pH 7) | SMILES | log K Fe [2] | log K Ca [4] | log K Cu [5] | other results |
| --- | --- | --- | --- | --- | --- | --- | --- | --- | --- | --- | --- | --- | --- | --- | --- | --- | --- | --- |
| 3.34 | 6.88 | 9.85 | 12.24 | 14.31 | 18.22 | −7.26 | −3.72 | −0.75 | 1.64 | 3.71 | 5.71 | 7.62 | 16.31 | O=C(O)CN(CCN(CC(=O)O)CC(=O)O)CCN(CC(=O)O)CC(=O)O [DTPA] | 16.4 | 10.75 | 21.4 | – |
| 5.45 | 8.29 | 10.46 | 12.45 | 14.24 | 16.60 | −2.65 | 0.19 | 2.36 | 4.35 | 6.14 | 7.45 | 8.50 | 15.55 | O=C(O)CN(CCN(CC(=O)O)CC(=O)O)CC(=O)O [EDTA] | 14.3 | 10.65 | 18.78 | – |
| 3.39 | 6.30 | 8.85 | 10.88 | 12.41 | 14.54 | −5.81 | −2.90 | −0.35 | 1.68 | 3.21 | 4.33 | 5.34 | 13.53 | O=C(O)CN(CCO)CCN(CC(=O)O)CC(=O)O [HEDTA] | – | – | – | – |
